Reference: US5512687A, “Compounds for inhibiting immune response” (Procept, Inc., priority 1994, dated 1996)
Read-outs that look alike come from different tables or passages of the source.

Columns and labels:
[1] = tested on: human peripheral blood lymphocyte (PBL) proliferation; type: cell-based
Jurkat cell line = assay: in vitro toxicity study, cytotoxicity (Jurkat cell); type: cell-based

For `Cn1cc[n+]([Ru-3]([n+]2ccn(C)c2)([n+]2ccn(C)c2)([n+]2ccn(C)c2)([n+]2ccn(C)c2)[n+]2ccn(C)c2)c1.F[P-](F)(F)(F)(F)F.F[P-](F)(F)(F)(F)F.F[P-](F)(F)(F)(F)F` [Ru(1-MeIm)6 !(PF6)3], the IC50 [1] was 0.19 ± 0.16 µg/mL and the “Cytotoxicity (Jurkat cell) IC50” value (Jurkat cell line) was 115 µg/mL.
With `Cn1cc[n+]([Ru-4]([n+]2ccn(C)c2)([n+]2ccn(C)c2)([n+]2ccn(C)c2)([n+]2ccn(C)c2)[n+]2ccn(C)c2)c1.[Cl-].[Cl-]` [Ru(1-MeIm)6 !Cl2] the IC50 [1] was 0.052 ± 0.03 µg/mL and the “Cytotoxicity (Jurkat cell) IC50” value (Jurkat cell line) was 2000 µg/mL.
In the case of `Cn1cc[n+]([Ru-3]([n+]2ccn(C)c2)([n+]2ccn(C)c2)([n+]2ccn(C)c2)([n+]2ccn(C)c2)[n+]2ccn(C)c2)c1.[Cl-].[Cl-].[Cl-]` [Ru(1-MeIm)6 !Cl3], the IC50 [1] is reported as 0.12 ± 0.1 µg/mL and the “Cytotoxicity (Jurkat cell) IC50” value (Jurkat cell line) is reported as over 300 µg/mL.
`[Cl-].[Cl-].c1c[n+]([Ru-4]([n+]2cc[nH]c2)([n+]2cc[nH]c2)([n+]2cc[nH]c2)([n+]2cc[nH]c2)[n+]2cc[nH]c2)c[nH]1` [Ru(Im)6 !Cl2] was tested, and the IC50 [1] was 0.0067 ± 0.003 µg/mL and the “Cytotoxicity (Jurkat cell) IC50” value (Jurkat cell line) was 200 µg/mL.
`[Cl-].[Cl-].[Cl-].c1c[n+]([Ru-3]([n+]2cc[nH]c2)([n+]2cc[nH]c2)([n+]2cc[nH]c2)([n+]2cc[nH]c2)[n+]2cc[nH]c2)c[nH]1` [Ru(Im)6 !Cl3] was tested, and the IC50 [1] was 0.005 ± 0.004 µg/mL and the “Cytotoxicity (Jurkat cell) IC50” value (Jurkat cell line; values are extrapolated) was 530 µg/mL.
In the case of Ru(4-MeIm)6 !Cl2, the IC50 [1] is reported as 0.09 ± 0.07 µg/mL and the “Cytotoxicity (Jurkat cell) IC50” value (Jurkat cell line; values are extrapolated) is reported as 1040 µg/mL.
